The test system of experiment [1] is sarcoplasmic reticulum (SR) in mouse extensor digitorum longus (EDL) fibers. Description: SR Ca2+ leak in mechanically-skinned EDL muscle fibers (total SR Ca2+ content, [CaT]SR, after 1 min leak). It counts as cell-based, mouse (C57/Bl6). An excerpt: All experiments were approved by The University of Queensland Animal Ethics Committees. Male and female C57/Bl6 2–6-month-old mice were sacrificed by asphyxiation via CO2 exposure and the EDL muscles were rapidly excised. The EDL was pinned at resting length in a petri dish lined with Sylgard 184 (Dow Corning, Midland, MI) and immersed in paraffin oil (Ajax Chemicals, Sydney, Australia). Segments of individual fibers were mechanically skinned using jeweler’s forceps and pinned out unstretched under oil[37]–[39]. The skinned fiber was then mounted at 120% of resting length on a force transducer (Myotronic UG, Heidelberg, Germany) before transfer to a 2-ml Perspex bath containing standard K^+-based solution that broadly mimics the intracellular milieu. […] All chemicals were purchased from Sigma-Aldrich (St Louis, MO, USA) unless specified otherwise.
Variations of the standard solution were prepared. To deplete the caffeine releasable Ca^2+ (“full release solution”), 30 mM caffeine was added, [Mg^2+] was lowered to 0.05 mM (total Mg^2+ of 2.1 mM) and free EGTA was adjusted to 0.5 mM (pCa 8.5) to chelate released Ca^2+. To measure the maximum force produced by the skinned fiber, all HDTA was replaced by EGTA (relaxing solution) or CaEGTA (maximum Ca^2+ activating solution). The relaxing solution contained 50 mM EGTA and no added Ca^2+ (pCa > 9) and the maximum Ca^2+-activating solution contained 49.5 mM Ca^2+ (pCa 4.7), with total Mg^2+ of 10.3 and 8.1 mM, respectively, to maintain the free [Mg^2+] at 1 mM. A “leak solution” was also prepared, where [Mg^2+] set at 0.1 mM (total Mg^2+ of 3.4 mM) to increase the PO of RyR and with 2 mM EGTA (pCa ~8.5) to chelate leaky Ca^2+ from the SR. […] The BAPTA solution used to pre-equilibrate fibers before lysing was similar to the standard K-HDTA solution but EGTA was replaced with 0.1–1.6 mM BAPTA[37],[39].
The skinned fiber was then equilibrated for 20 s in a solution with a set [BAPTA] before being placed in a freshly triturated emulsion of Triton X-100 in paraffin oil (TX–oil) (10% v/v). The Ca^2+ released upon the membrane lysing rapidly binds to the known amount of BAPTA present within the fiber and to other sites, predominantly troponin C (TnC). The pre-equilibrating [BAPTA] was chosen such that the fiber produced a finite, non-maximal force response upon lysis. Pre-treatment of the fiber with “full release solution” allowed the non-SR Ca^2+ content of the skinned fiber to be assayed. The total amount of Ca^2+ present in the fiber could be calculated from the [BAPTA] in the equilibration solution and the magnitude of the force response. Data are presented as mean ± SD, with n denoting the number of fibers examined. Statistical significance (p < 0.05) was determined with One-way ANOVA.

Experiment [2] addresses T1, RyR1 (Oryctolagus cuniculus, UniProt P11716).
T1 construct: skeletal SR vesicles were isolated from the back and leg muscles of mature female New Zealand white rabbits; from tissue; host or cells: rabbit back and leg skeletal muscle, sarcoplasmic reticulum vesicles
To be noted: cited from earlier work. Here is the method:
Electrophysiology experiments were carried out to determine the potency of each peptide. […] It is known that the activity of I ...

The next experiment concerns the target T2, ryanodine receptor (Oryctolagus cuniculus, UniProt P11716).
T2 construct: skeletal SR vesicles were isolated from the back and leg muscles of mature female New Zealand white rabbits; from tissue; host or cells: rabbit back and leg skeletal muscle, sarcoplasmic reticulum vesicles
In words: Single channel recording, exposure to peptide (sheet "Supp Fig 11"; RyR isoform not given). It counts as biochemical. To be noted: IpTxA; combined average 100pM, 1nM and 5nM; 7 listed values; sem 0.460531; t-test 3.72E-02; control = 1. An excerpt: Supplement 41467_2023_36579_MOESM6_ESM.xlsx, sheet "Supp Fig 11" | column: mean Tc; mean To; mean Po; rel Tc; rel To; rel Po

Experiment [3] has as its target T1, RyR1. In words: Single channel electrophysiology of RyR1 channels inserted into lipid bilayers (exposure to peptide). The conditions noted are these: +40 mV. It counts as biochemical, New Zealand white rabbit (skeletal SR). Here is the method: Cardiac SR was prepared from mature female crossbred sheep hearts, and skeletal SR vesicles were isolated from the back and leg muscles of mature female New Zealand white rabbits[29],[54] with approval from the ANU Animal Experiment Ethics Committee Protocol Number A2015/35. […] Solutions for vesicle incorporation contained (mM): cis 230 caesium methanesulfonate (CsMS); 20 CsCl; 1 CaCl2 and 10 […] (TES) pH 7.4 and trans 30 CsMS; 20 CsCl; 1 CaCl2 10 TES; pH 7.4. […] Following incorporation, 200 mM CsMS was added to the trans solution and the cis solution exchanged with recording solution containing (mM): 230 CsMS; 20 CsCl; 0.001 CaCl2;10 TES and pH 7.4, with [Ca^2+] set by a [BAPTA] determined using a Ca^2+ electrode. The cytoplasmic and luminal solutions contained 1 μM and 1 mM Ca^2+ respectively, with symmetrical 250/250 mM CsMS. Bilayer voltage was switched between +40 mV and −40 mV (cytoplasmic voltage relative to grounded luminal solution) every 30 s. The activity of the RyR channels used here included 1 µM Ca^2+ in the cytoplasmic solution and 1 mM Ca^2+ in the luminal solution[29],[55]. Electrophysiology experiments were analysed using Channel 2 (P.W. Gage, M. Smith, Australian National University) and Channel 3 (N.W. Laver, University of Newcastle, Australia) software, available from the authors upon request. Statistical analyses were performed using Microsoft Excel (Office 365). […] Following most incorporation events, a single channel only was active in the bilayer and channel open probability (Po), mean open time (To), mean closed time (Tc) and open event frequency (Fo) were measured. When 2–4 channels were active in a bilayer, PO was approximated from the fractional mean current (I’F), i.e., mean current divided by maximum current. I’F is equal to PO in a single channel and indicates the average PO of multiple channels in a bilayer. […] Experiments at UN also included a minority of multi-channel experiments. The bilayer rigs, solution composition, source of channels, data acquisition and analyses methods were all identical.
Statistical analysis of single channel data was performed using Excel spreadsheets and embedded Students t-test functions or a sign test as indicated in the graphs in Figs. 1 and 3.

In a further experiment the test system is TRPV1. To be noted: cited from earlier work.
In experiment [4] the test system is RyR1. Also noted: method as in PMID 21323602. The conditions noted are these: cited from earlier work.
A further experiment has as its system RyR2. Further details: method as in PMID 21323602. To be noted: cited from earlier work.

No end group written: not given here.

T1 sequence (P11716 whole entry): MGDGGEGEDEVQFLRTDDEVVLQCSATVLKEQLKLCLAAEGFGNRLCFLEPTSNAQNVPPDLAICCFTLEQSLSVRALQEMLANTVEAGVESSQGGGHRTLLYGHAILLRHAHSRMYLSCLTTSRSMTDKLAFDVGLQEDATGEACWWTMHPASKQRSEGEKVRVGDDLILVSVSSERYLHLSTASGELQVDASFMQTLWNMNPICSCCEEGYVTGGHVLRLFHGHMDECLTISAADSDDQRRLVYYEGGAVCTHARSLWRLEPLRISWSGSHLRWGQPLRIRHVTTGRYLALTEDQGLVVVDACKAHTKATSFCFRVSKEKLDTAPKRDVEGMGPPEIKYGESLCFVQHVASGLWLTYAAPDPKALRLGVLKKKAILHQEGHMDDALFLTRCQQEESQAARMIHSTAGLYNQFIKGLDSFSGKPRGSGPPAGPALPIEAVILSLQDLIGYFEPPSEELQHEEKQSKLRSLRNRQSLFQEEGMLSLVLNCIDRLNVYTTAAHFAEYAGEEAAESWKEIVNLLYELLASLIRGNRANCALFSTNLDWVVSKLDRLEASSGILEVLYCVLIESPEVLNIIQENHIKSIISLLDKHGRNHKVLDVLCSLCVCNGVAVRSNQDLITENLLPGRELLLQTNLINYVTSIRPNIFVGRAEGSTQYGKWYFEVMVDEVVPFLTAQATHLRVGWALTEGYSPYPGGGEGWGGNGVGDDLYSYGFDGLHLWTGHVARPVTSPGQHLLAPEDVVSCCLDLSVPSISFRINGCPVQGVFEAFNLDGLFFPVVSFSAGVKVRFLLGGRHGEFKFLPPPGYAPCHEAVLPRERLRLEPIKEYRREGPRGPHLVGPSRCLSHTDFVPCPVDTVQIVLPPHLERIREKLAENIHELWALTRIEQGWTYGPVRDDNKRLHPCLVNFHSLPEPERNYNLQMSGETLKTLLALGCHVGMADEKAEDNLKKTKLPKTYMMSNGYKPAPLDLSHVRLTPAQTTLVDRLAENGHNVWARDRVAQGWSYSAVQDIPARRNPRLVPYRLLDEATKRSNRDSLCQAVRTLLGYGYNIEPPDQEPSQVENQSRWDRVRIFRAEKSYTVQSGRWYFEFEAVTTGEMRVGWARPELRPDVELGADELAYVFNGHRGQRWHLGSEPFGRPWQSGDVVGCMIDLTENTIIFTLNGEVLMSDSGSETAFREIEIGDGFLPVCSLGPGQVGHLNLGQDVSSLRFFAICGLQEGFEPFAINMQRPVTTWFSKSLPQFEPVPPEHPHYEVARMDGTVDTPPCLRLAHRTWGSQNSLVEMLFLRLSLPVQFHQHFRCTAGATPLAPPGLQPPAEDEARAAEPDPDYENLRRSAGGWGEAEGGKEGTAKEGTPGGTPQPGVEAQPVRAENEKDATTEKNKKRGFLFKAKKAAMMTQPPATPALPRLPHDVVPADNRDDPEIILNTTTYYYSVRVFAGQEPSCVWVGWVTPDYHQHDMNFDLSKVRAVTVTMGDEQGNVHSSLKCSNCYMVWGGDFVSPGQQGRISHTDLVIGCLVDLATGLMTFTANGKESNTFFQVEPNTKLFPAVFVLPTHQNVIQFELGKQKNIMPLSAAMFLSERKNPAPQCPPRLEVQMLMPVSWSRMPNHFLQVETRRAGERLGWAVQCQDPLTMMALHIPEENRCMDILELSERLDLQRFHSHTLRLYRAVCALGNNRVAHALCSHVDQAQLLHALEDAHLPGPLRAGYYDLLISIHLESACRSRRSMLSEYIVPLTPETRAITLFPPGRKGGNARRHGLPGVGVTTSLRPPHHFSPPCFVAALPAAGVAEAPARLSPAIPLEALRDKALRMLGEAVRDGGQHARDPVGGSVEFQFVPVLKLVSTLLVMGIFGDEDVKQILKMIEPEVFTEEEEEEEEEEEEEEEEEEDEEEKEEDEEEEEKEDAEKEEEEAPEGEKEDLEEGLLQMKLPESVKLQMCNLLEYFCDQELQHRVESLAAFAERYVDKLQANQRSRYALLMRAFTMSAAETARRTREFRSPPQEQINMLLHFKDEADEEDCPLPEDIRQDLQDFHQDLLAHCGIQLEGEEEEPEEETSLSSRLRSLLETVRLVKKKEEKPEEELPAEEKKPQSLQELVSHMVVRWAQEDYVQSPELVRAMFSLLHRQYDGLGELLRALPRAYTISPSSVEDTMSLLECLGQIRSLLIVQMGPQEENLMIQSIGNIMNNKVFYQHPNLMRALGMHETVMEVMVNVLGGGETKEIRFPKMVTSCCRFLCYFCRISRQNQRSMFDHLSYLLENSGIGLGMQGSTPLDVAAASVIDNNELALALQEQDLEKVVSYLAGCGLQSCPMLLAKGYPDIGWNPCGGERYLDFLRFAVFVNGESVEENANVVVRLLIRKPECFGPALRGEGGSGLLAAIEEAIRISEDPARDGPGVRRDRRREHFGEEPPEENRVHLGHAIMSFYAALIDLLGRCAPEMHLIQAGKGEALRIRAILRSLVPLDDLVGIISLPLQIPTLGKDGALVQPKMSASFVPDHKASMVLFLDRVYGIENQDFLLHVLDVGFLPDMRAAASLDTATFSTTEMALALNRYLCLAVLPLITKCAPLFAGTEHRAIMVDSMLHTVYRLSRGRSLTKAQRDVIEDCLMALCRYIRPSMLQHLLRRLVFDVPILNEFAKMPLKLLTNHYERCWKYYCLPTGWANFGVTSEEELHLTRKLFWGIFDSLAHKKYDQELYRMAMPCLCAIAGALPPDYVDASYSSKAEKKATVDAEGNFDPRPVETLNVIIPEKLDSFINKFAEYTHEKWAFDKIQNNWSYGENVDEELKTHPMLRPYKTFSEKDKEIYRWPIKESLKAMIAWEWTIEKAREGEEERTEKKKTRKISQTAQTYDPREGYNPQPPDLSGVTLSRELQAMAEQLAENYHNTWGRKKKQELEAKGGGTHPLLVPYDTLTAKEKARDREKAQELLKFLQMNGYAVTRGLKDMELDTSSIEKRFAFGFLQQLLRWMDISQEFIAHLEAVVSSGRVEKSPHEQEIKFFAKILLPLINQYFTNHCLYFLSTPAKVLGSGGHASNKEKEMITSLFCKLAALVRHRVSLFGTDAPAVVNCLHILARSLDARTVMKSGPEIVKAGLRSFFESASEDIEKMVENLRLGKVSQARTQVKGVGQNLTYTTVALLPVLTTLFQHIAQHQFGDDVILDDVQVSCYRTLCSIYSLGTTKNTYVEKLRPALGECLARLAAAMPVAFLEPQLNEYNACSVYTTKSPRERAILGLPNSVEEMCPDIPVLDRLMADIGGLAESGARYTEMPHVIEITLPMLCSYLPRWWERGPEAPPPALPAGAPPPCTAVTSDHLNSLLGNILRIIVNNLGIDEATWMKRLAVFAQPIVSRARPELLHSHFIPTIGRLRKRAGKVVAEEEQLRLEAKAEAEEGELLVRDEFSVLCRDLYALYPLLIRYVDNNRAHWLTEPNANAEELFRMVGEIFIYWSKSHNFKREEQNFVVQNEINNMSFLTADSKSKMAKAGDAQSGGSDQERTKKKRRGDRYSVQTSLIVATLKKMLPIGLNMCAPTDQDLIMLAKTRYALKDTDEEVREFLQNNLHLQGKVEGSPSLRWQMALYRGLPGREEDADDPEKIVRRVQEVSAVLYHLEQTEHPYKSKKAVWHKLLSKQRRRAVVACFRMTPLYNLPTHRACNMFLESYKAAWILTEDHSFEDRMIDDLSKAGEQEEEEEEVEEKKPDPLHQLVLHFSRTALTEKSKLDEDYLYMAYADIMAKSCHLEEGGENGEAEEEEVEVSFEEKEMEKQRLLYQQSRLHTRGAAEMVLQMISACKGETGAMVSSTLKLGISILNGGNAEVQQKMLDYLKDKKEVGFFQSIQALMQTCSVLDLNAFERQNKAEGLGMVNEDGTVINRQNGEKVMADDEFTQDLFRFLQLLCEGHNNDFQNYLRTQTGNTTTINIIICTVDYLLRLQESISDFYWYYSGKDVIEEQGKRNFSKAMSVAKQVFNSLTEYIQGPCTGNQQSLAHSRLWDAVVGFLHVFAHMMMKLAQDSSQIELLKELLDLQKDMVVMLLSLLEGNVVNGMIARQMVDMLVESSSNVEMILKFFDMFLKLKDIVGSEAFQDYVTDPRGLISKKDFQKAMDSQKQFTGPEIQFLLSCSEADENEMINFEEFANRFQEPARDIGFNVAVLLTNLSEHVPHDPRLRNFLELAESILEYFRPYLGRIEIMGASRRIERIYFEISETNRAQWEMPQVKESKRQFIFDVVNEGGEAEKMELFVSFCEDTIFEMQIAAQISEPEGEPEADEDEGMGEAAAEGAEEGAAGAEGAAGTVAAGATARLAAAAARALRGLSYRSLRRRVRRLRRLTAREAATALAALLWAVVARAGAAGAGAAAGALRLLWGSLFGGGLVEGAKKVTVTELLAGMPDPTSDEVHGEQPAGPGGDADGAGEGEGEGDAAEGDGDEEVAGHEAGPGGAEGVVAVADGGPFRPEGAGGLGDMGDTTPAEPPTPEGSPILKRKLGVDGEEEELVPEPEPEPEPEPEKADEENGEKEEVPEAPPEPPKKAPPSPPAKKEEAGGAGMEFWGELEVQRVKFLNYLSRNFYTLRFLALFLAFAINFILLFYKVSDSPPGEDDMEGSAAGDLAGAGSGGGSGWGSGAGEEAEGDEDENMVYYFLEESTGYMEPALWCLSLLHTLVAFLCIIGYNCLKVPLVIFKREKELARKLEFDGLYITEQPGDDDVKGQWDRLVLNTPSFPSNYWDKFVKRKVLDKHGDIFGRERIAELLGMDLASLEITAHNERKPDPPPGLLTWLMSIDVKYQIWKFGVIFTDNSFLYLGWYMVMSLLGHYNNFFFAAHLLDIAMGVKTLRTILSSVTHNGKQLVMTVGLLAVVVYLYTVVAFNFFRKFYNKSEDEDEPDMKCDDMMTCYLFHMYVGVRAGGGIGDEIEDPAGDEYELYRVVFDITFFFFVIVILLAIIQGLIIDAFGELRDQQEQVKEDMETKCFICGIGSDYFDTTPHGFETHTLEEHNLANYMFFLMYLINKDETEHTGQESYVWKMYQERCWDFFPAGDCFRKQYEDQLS
T2 sequence (P11716 whole entry): as above

In the case of “imperatoxin-A (GDCLPHLKRCKADNDCCGKKCKRRGTNAEKRCR; not fully specified; ends and bridges not checked; UniProt P59868 1-33, looked up) [IpTxA, member of the calcin family of scorpion derived ICK toxins, recombinant (SUMO fusion), reference compound]”, the “efficiency to increase SR Ca2+ leakage (order)” value in experiment [1] (10 nM) is recorded as “Xt3a > Xt3a-D1 ~ IpTxA > Xt3a-D2”. The “depletion of [CaT]SR” value in experiment [1] (10 nM peptide in leak solution, 1 min leak, mean ± SD, control leak 18 ± 7%) came out at 55 ± 18%. For the same molecule, the “Relative amount of total Ca2+ left in the SR ([CaT]SR)” value in experiment [1] (10 nM peptide, 1 min leak, relative to Pre, fiber 2 of column) came out at 17.9; in experiment [1] (10 nM peptide, 1 min leak, relative to Pre, fiber 3 of column) it was 33.5; in experiment [1] (10 nM peptide, 1 min leak, relative to Pre, fiber 4 of column) it was 46.4; in experiment [1] (10 nM peptide, 1 min leak, relative to Pre, fiber 5 of column), 44.7; in experiment [1] (10 nM peptide, 1 min leak, relative to Pre, fiber 6 of column), 44.3; in experiment [1] (10 nM peptide, 1 min leak, relative to Pre, fiber 7 of column), 51.6. Further, the “Relative amount of total Ca2+ left in the SR ([CaT]SR)” value was 48.5 in experiment [1] (10 nM peptide, 1 min leak, relative to Pre, fiber 8 of column); 70.6 in experiment [1] (10 nM peptide, 1 min leak, relative to Pre, fiber 9 of column); 71.5 in experiment [1] (10 nM peptide, 1 min leak, relative to Pre, fiber 10 of column); 19.4 in experiment [1] (10 nM peptide, 1 min leak, relative to [CaT]SR before the leak (Pre), fiber 1 of column). The “Relative amount of total Ca2+ left in the SR ([CaT]SR), mean” value in experiment [1] (10 nM peptide, 1 min leak, relative to Pre, mean (n = 13 Xt3a, n = 10 others)) was 44.8. For the same molecule, the reversibility of activity entry with RyR1 [2] is given as “reversible”. Further, in the experiment with ryanodine receptor, the “mean rel Po” value is on record as 1.9. In the experiment with RyR1 [3] (0.1 nM n=2, 1 nM n=3, 10 nM n=2 grouped (n=7, P=3.7E-02)), the “activation of RyR1” value is given as “show activation withn a similar range”. Also, in the experiment with RyR1 [3] (isolated domains and IpTxA), the “activation of RyR1 channels” value was “potent (pM to nM) activation of RyR1 channels”.

B1: DkTx: double-knot spider toxin with tandem repeat ICK structure, TRPV1 (peptide, UniProt P0CH43 1-79, looked up)
Tau-theraphotoxin-Hs1a: DCAKEGEVCSWGKKCCDLDNFYCPMEFIPHCKKYKPYVPVTTNCAKEGEVCGWGSKCCHGLDCPLAFIPYCEKYRGRND
As for B1, the avidity on washout result in the experiment with TRPV1 is recorded as “high avidity, evidenced by persistent activity during washout”.

B2: GSTm2: glutathione transferase reported to modulate RyR1 and RyR2 (protein, UniProt P28161 1-218, looked up)
Glutathione S-transferase Mu 2: MPMTLGYWNIRGLAHSIRLLLEYTDSSYEEKKYTMGDAPDYDRSQWLNEKFKLGLDFPNLPYLIDGTHKITQSNAILRYIARKHNLCGESEKEQIREDILENQFMDSRMQLAKLCYDPDFEKLKPEYLQALPEMLKLYSQFLGKQPWFLGDKITFVDFIAYDVLERNQVFEPSCLDAFPNLKDFISRFEGLEKISAYMKSSRFLPRPVFTKMAVWGNK
Regarding B2, the “effect on RyR1 activity” value in the experiment on RyR1 [4] was “slightly increases the activity of RyR1”. Also, the “effect on RyR2 activity” value in the experiment on RyR2 is recorded as “strongly inhibits RyR2”.
